Experimental data taken from ChEMBL document CHEMBL3885861, “Open TG-GATES”.

Organism: Rattus norvegicus
Test: Open TG-GATES - Regimen: Daily Repeat
Type: toxicity, organism-based, Sprague-Dawley
Set-up: regimen Daily Repeat, gender Male, age 6 weeks
Conditions: in vivo, po, 250 mg/kg, route gavage, dose level Middle; for APTT / Bas / Eos / Fbg / Hb / Ht / Lym / MCH / MCHC / MCV / Mono / Neu / PT / Plat / RBC / Ret / WBC: tissue Blood
[1] = 72 h, tissue Kidney, time 3 day
[2] = 72 h, tissue Plasma, time 3 day

Compound: CN(C/C=C/C#CC(C)(C)C)Cc1cccc2ccccc12 [TERBINAFINE]
- TERMINAL_BW (72 h, time 3 day): 237.2 g
- APTT (72 h, time 3 day): 17.7 s
- Bas (72 h, time 3 day): 1%
- Eos (72 h, time 3 day): 1%
- Fbg (72 h, time 3 day): 223.6 mg/dL
- Hb (72 h, time 3 day): 13.6 g/dL
- Ht (72 h, time 3 day): 40.4%
- Lym (72 h, time 3 day): 77.2%
- MCH (72 h, time 3 day): 21.7 pg
- MCHC (72 h, time 3 day): 33.7%
- MCV (72 h, time 3 day): 64.4 fL
- Mono (72 h, time 3 day): 3.4%
- Neu (72 h, time 3 day): 18%
- PT (72 h, time 3 day): 11.6 s
- Plat (72 h, time 3 day): 122 x10_4/uL
- RBC (72 h, time 3 day): 628.6 x10_4/ul
- Ret (72 h, time 3 day): 5.9%
- WBC (72 h, time 3 day): 115.2 x10_2/uL
- KIDNEY_L [1]: 1.1 g
- KIDNEY_R [1]: 1.1 g
- KIDNEY_TOTAL [1]: 2.2 g
- LIVER (72 h, tissue Liver, time 3 day): 12.2 g
- A/G [2]: 1.7
- ALP [2]: 954.4 IU/L
- ALT [2]: 39.8 IU/L
- AST [2]: 71.4 IU/L
- BUN [2]: 14.8 mg/dL
- CRE [2]: 0.4 mg/dL
- Ca [2]: 10.5 mg/dL
- Cl [2]: 103 meq/L
- DBIL [2]: 0.078 mg/dL
- GLC [2]: 189 mg/dL
- IP [2]: 7.5 mg/dL
- K [2]: 4 meq/L
- LDH [2]: 197 IU/L
- Na [2]: 141.4 meq/L
- PL [2]: 141.2 mg/dL
- RALB [2]: 3.5 g/dL
- TBIL [2]: 0.1 mg/dL
- TC [2]: 78.6 mg/dL
- TG [2]: 65.6 mg/dL
- TP [2]: 5.5 g/dL
- gamma-GTP [2]: 1.4 IU/L
- TERMINAL_BW ([…], time 7 day): 268.6 g
- TERMINAL_BW ([…], time 14 day): 323.9 g
- TERMINAL_BW ([…], time 28 day): 411.4 g
- APTT ([…], time 7 day): 21.6 s
- Bas ([…], time 7 day): 1%
- Eos ([…], time 7 day): 0.6%
- Fbg ([…], time 7 day): 206 mg/dL
- Hb ([…], time 7 day): 13.7 g/dL
- Ht ([…], time 7 day): 39.7%
- Lym ([…], time 7 day): 81.6%
- MCH ([…], time 7 day): 20.8 pg
- MCHC ([…], time 7 day): 34.6%
- MCV ([…], time 7 day): 60.2 fL
- Mono ([…], time 7 day): 2.4%
- Neu ([…], time 7 day): 13.8%
- PT ([…], time 7 day): 12.2 s
- Plat ([…], time 7 day): 134.5 x10_4/uL
- RBC ([…], time 7 day): 660 x10_4/ul
- Ret ([…], time 7 day): 4.1%
- WBC ([…], time 7 day): 128 x10_2/uL
- APTT ([…], time 14 day): 19.5 s
- Bas ([…], time 14 day): 1%
- Eos ([…], time 14 day): 1%
- Fbg ([…], time 14 day): 219.6 mg/dL
- Hb ([…], time 14 day): 14.1 g/dL
- Ht ([…], time 14 day): 41.7%
- Lym ([…], time 14 day): 82.4%
- MCH ([…], time 14 day): 19.9 pg
- MCHC ([…], time 14 day): 33.8%
- MCV ([…], time 14 day): 58.8 fL
- Mono ([…], time 14 day): 2.8%
- Neu ([…], time 14 day): 13%
- PT ([…], time 14 day): 11.6 s
- Plat ([…], time 14 day): 124.9 x10_4/uL
- RBC ([…], time 14 day): 710 x10_4/ul
- Ret ([…], time 14 day): 4.3%
- WBC ([…], time 14 day): 135.6 x10_2/uL
- APTT ([…], time 28 day): 22 s
- Bas ([…], time 28 day): 1%
- Eos ([…], time 28 day): 1.2%
- Fbg ([…], time 28 day): 223.8 mg/dL
- Hb ([…], time 28 day): 14.5 g/dL
- Ht ([…], time 28 day): 41.4%
